Experimental data published in patent US20240000753A1, “METHODS AND COMPOSITIONS TO INCREASE LIFESPAN AND HEALTHSPAN BY MIMICKING THE EFFECTS OF TIME-RESTRICTED FEEDING” (The Trustees of Columbia University in the City of New York, priority 2020, published 2024).

Tested on: Drosophila
Test: Lifespan analysis of flies fed RU486
Type: in vivo
Conditions: flies lacking UAS-RNAi transgenes; RU486 fed from day 5 post-eclosion until death (FIG. 5K)
Method: All drugs were supplemented into cooled (65° C.) liquid adult medium (containing 3% yeast extract) following preparation to the following final concentration(s): RU486 (Cayman Chemical) was dissolved in ethanol was supplemented into medium after day 5 of eclosion at a final concentration of 100 μg/mL (with the exception of daGS>UAS-atg1 and controls, 0.5 μg/mL) vehicle controls were supplemented with same volume of ethanol alone. Timed RU486 feeding of daGS>UAS-atg1 consisted of flies being fed 0.5 μg/mL in standard adult media or fasting media only during the fasting phase, then flipped to vehicle control food the following morning only from days 10-40 of adulthood. Vehicle only controls were flipped at the same time for consistency. For gut microbe clearance, the medium contained 500 μg/mL ampicillin, 50 μg/mL tetracycline, and 200 μg/mL rifamycin in 50% ethanol. Same volume of 50% ethanol alone was used as the vehicle control. Drosophila were reared from embryos in low-density bottles with standard yeast cornmeal-agar media listed above (Archon Scientific) Newly eclosed flies (˜24 hours) were collected onto adult medium w/3% yeast extract and allowed to mate for 48 hours. […] Death was scored at time of flipping, and lifespan compared by log-rank analysis.

CC#C[C@]1(O)CC[C@H]2[C@@H]3CCC4=CC(=O)CCC4=C3[C@@H](c3ccc(N(C)C)cc3)C[C@@]21C [RU486]
effect on iTRF-mediated lifespan extension: no effect
